According to PubChem BioAssay (NCI):
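In this assay, cells in 96-well plates receive the compound at five concentrations for 48 hours. Endpoints are linearly interpolated between the surrounding concentrations. The concentration for 50% growth inhibition is given as GI50. Definition used: TGI = concentration required for complete inhibition of growth.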

What was measured:
Test in all cases: growth of human tumour cells (NCI), 48 h; in the data active = GI50 below about 0.43 µM; inactive = the rest
[1] = tested on: 786-0 renal
[2] = tested on: A498 renal
[3] = tested on: A549 NSCLC
[4] = tested on: ACHN renal
[5] = tested on: CAKI-1 renal
[6] = tested on: CCRF-CEM leukemia
[7] = tested on: COLO 205 colon
[8] = tested on: DU-145 prostate
[9] = tested on: EKVX NSCLC
[10] = tested on: HCC-2998 colon
[11] = tested on: HCT-116 colon
[12] = tested on: HCT-15 colon
[13] = tested on: HL-60(TB) leukemia
[14] = tested on: HOP-62 NSCLC
[15] = tested on: HOP-92 NSCLC
[16] = tested on: HS 578T breast
[17] = tested on: HT29 colon
[18] = tested on: IGROV1 ovarian
[19] = tested on: K-562 leukemia
[20] = tested on: KM12 colon
[21] = tested on: LOX IMVI melanoma
[22] = tested on: M14 melanoma
[23] = tested on: MALME-3M melanoma
[24] = tested on: MCF7 breast
[25] = tested on: MDA-MB-231 breast
[26] = tested on: MDA-MB-435
[27] = tested on: MOLT-4 leukemia
[28] = tested on: NCI-H226 lung
[29] = tested on: NCI-H23 lung
[30] = tested on: NCI-H460 lung
[31] = tested on: NCI-H522 lung
[32] = tested on: NCI/ADR-RES ovarian
[33] = tested on: OVCAR-3 ovarian
[34] = tested on: OVCAR-4 ovarian
[35] = tested on: OVCAR-5 ovarian
[36] = tested on: OVCAR-8 ovarian
[37] = tested on: PC-3 prostate
[38] = tested on: RPMI-8226 leukemia
[39] = tested on: RXF 393 renal
[40] = tested on: SF-268 CNS
[41] = tested on: SF-295 CNS
[42] = tested on: SF-539 CNS
[43] = tested on: SK-MEL-2 melanoma
[44] = tested on: SK-MEL-28 melanoma
[45] = tested on: SK-MEL-5 melanoma
[46] = tested on: SK-OV-3 ovarian
[47] = tested on: SN12C renal
[48] = tested on: SNB-19 CNS
[49] = tested on: SNB-75 CNS
[50] = tested on: SR leukemia
[51] = tested on: SW-620 colon
[52] = tested on: T-47D breast
[53] = tested on: TK-10 renal
[54] = tested on: U251 CNS
[55] = tested on: UACC-257 melanoma
[56] = tested on: UACC-62 melanoma
[57] = tested on: UO-31 renal
[58] = tested on: BT-549 breast

Cc1cc(C#Cc2ccccc2)ccc1-n1c(/C=C/c2ccc(O)cc2)nc2ccccc2c1=O
21.7 µM: TGI [56]
27.3 µM: TGI [31]
32.8 µM: TGI [53]
13.6 µM: TGI [41]
7.71 µM: TGI [2]
7.35 µM: TGI [10]
7.26 µM: TGI [15]
49.5 µM: TGI [16]
3.83 µM: TGI [45]
15.1 µM: TGI [22]
inactive: GI50 [1] 3.65 µM | GI50 [2] 1.56 µM | GI50 [3] 3.14 µM | GI50 [4] 2.46 µM | GI50 [5] 3.3 µM | GI50 [6] 3.26 µM | GI50 [7] 1.99 µM | GI50 [8] 4.87 µM | GI50 [9] 2.43 µM | GI50 [10] 2.35 µM | GI50 [11] 2.66 µM | GI50 [12] 2.5 µM | GI50 [13] 1.66 µM | GI50 [14] 13.1 µM | GI50 [15] 2.5 µM | GI50 [16] 2.48 µM | GI50 [17] 3.33 µM | GI50 [18] 20.6 µM | GI50 [19] 2 µM | GI50 [20] 3.24 µM | GI50 [21] 2.78 µM | GI50 [22] 3.56 µM | GI50 [23] 2.12 µM | GI50 [24] 2.72 µM | GI50 [25] 3.89 µM | GI50 [26] 2.82 µM | GI50 [27] 2.36 µM | GI50 [28] 3.99 µM | GI50 [29] 3.62 µM | GI50 [30] 2.22 µM | GI50 [31] 2.26 µM | GI50 [32] 3.09 µM | GI50 [33] 3.6 µM | GI50 [34] 3.17 µM | GI50 [35] 4.59 µM | GI50 [36] 3.98 µM | GI50 [37] 3.24 µM | GI50 [38] 2.33 µM | GI50 [39] 3.51 µM | GI50 [40] 4.56 µM | GI50 [41] 2.85 µM | GI50 [42] 5.65 µM | GI50 [43] 1.93 µM | GI50 [44] 4.54 µM | GI50 [45] 1.77 µM | GI50 [46] 9.91 µM | GI50 [47] 3.77 µM | GI50 [48] 6.91 µM | GI50 [49] 3.66 µM | GI50 [50] 2.45 µM | GI50 [51] 4.08 µM | GI50 [52] 2.02 µM | GI50 [53] 2.62 µM | GI50 [54] 4.33 µM | GI50 [55] 4.18 µM | GI50 [56] 3.48 µM | GI50 [57] 2.06 µM
10.8 µM: TGI [21]
29 µM: TGI [50]
25.7 µM: TGI [33]
38.3 µM: TGI [47]
42 µM: TGI [32]
6.18 µM: TGI [30]
7.65 µM: TGI [57]
8.52 µM: TGI [4]
56.3 µM: TGI [55]
19.2 µM: TGI [12]
11 µM: TGI [11] | TGI [24]
> 100 µM: TGI [3] | TGI [6] | TGI [8] | TGI [9] | TGI [14] | TGI [18] | TGI [19] | TGI [28] | TGI [29] | TGI [36] | TGI [37] | TGI [38] | TGI [39] | TGI [40] | TGI [42] | TGI [44] | TGI [46] | TGI [48] | TGI [51] | TGI [54]
12.6 µM: TGI [20]
4.75 µM: TGI [7]
4.69 µM: TGI [13]
16.6 µM: TGI [17]
29.5 µM: TGI [25]
28.7 µM: TGI [1]
22.7 µM: TGI [34]
5.76 µM: TGI [43]
7.31 µM: TGI [23]
22.8 µM: TGI [26]
94.7 µM: TGI [35]
36.5 µM: TGI [5]
8.13 µM: TGI [52]
8.33 µM: TGI [27]
38.4 µM: TGI [49]

Cc1cccc(-c2cc(=O)c3c(C)ccnc3[nH]2)c1
11.1 µM: TGI [10]
27.8 µM: TGI [45]
16.8 µM: TGI [20]
> 42.2 µM: TGI [24]
26.1 µM: TGI [38]
16.3 µM: TGI [30]
> 33.5 µM: TGI [11]
0.703 µM: TGI [13]
0.798 µM: TGI [31]
2.68 µM: TGI [7]
> 100 µM: TGI [1] | TGI [2] | TGI [3] | TGI [4] | TGI [58] | TGI [5] | TGI [6] | TGI [8] | TGI [9] | TGI [12] | TGI [14] | TGI [16] | TGI [17] | TGI [18] | TGI [19] | TGI [21] | TGI [22] | TGI [25] | TGI [27] | TGI [28] | TGI [29] | TGI [34] | TGI [35] | TGI [36] | TGI [37] | TGI [39] | TGI [40] | TGI [42] | TGI [43] | TGI [44] | TGI [46] | TGI [47] | TGI [49] | TGI [52] | TGI [53] | TGI [54] | TGI [56]
